Assay results published in publication PMC6480704, “Antiproliferative Aspidosperma-Type Monoterpenoid Indole Alkaloids from Bousigonia mekongensis Inhibit Tubulin Polymerization” (Molecules, 2019).
“Also recorded” adds a separate entry of the source. Read-outs that look alike come from different tables or passages of the source.

Assays:
[1] = tested on: MCF-7 (estrogen receptor-positive breast cancer); assay: Antiproliferative SRB assay, MCF-7; type: cell-based; details: Homo sapiens, read-out: IC50 MCF-7
Procedure: (§1) We tested the fourteen known aspidosperma-type alkaloids (1–14) against chemosensitive KB (originally isolated from epidermoid carcinoma of the nasopharynx) and P-gp over-expressing multidrug-resistant (MDR) KB subline KB-VIN, as well as three additional human cancer cell lines, A549 (lung carcinoma), MDA-MB-231 (triple negative breast cancer), and MCF-7 (estrogen receptor-positive breast cancer), using a sulforhodamine B (SRB) assay (Table 1).
(§2) Antiproliferative activity was determined by the sulforhodamine B (SRB) colorimetric assay as previously described. In brief, human tumor cell lines were cultured in RPMI-1640 medium containing 2 mM l-glutamine and 25 mM HEPES (Gibco), supplemented with 10% fetal bovine serum (Speciality Media), 100 µg/mL streptomycin, 100 IU/mL penicillin, and 0.25 µg/mL amphotericin B (Corning). MDR stock cells (KB-VIN) were maintained in the presence of 100 nM vincristine (VIN) (Sigma-Aldrich, Saint Louis, MI, USA).
(§3) Freshly trypsinized cell suspensions were seeded in 96-well microtiter plates at densities of 4000–11,000 cells per well (based on the cell lines) with compounds. After 72 h in culture with test compounds, cells were fixed in 10% trichloroacetic acid followed by staining with 0.04% sulforhodamine B (Sigma-Aldrich). The bound SRB was solubilized in 10 mM Tris-base and the absorbance at 515 nm was measured using a Microplate Reader (ELx800, Bio-Tek Instruments, Winooski, VT, USA) operated by Gen5 software (BioTek) after solubilizing the protein-bound dye with 10 mM Tris base. The mean IC50 is the concentration of agent that reduced cell growth by 50% compared with vehicle (DMSO) control under the experimental conditions and is the average from at least three independent experiments with duplicate samples.
(§4) The following human tumor cell lines were used in the assay: A549 (lung carcinoma), MDA-MB-231 (triplen-egative breast cancer), KB (originally isolated from epidermoid carcinoma of the nasopharynx), KB-VIN (VIN-resistant KB subline showing MDR phenotype by overexpressing P-gp), MCF-7 (estrogen receptor (ER)-positive, HER2-negative breast cancer). […] All cell lines were obtained from the Lineberger Comprehensive Cancer Center (UNC-CH) or from ATCC (Manassas, VA), except KB-VIN, which was a generous gift from Professor Y.-C. Cheng (Yale University). Paclitaxel was purchased from Sigma-Aldrich.

[2] = tested on: KB (originally isolated from epidermoid carcinoma of the nasopharynx); assay: Antiproliferative SRB assay, KB; type: cell-based; details: Homo sapiens, 72 h, read-out: IC50 KB
Procedure: as §1, §2, §3, §4

[3] = tested on: MDA-MB-231 (triple negative breast cancer); assay: Antiproliferative SRB assay, MDA-MB-231; type: cell-based; details: Homo sapiens, read-out: IC50 MDA-MB-231
Procedure: as §1, §2, §3, §4

[4] = tested on: A549, MDA-MB-231, KB, KB-VIN, and MCF-7; assay: Antiproliferative SRB assay, values stated across several cell lines; type: cell-based, human; details: for antiproliferative activity (in words): five human tumor cell lines including MDR subline KB-VIN
Procedure: as §1, §2, §3, §4

[5] = tested on: KB-VIN (VIN-resistant KB subline showing MDR phenotype by overexpressing P-gp); assay: Antiproliferative SRB assay, KB-VIN; details: for IC50: Homo sapiens, KBVIN, 72 h, read-out: IC50 KB-VIN; for fold higher concentration required against KB-VIN cells: KB-VIN compared with chemosensitive cells
Procedure: as §1, §2, §3, §4

[6] = tested on: A549 (lung carcinoma); assay: Antiproliferative SRB assay, A549; type: cell-based; details: Homo sapiens, read-out: IC50 A549
Procedure: as §1, §2, §3, §4

[7] = tested on: KB-VIN cells; assay: Immunofluorescence staining of α-tubulin, pH3 and DNA; type: cell-based, human; details: 24 h, 3 × IC50
Procedure: (§5) Figure 2 Mitotic defects in KB-VIN cells treated by compounds. […] Cell cycle distributions (sub-G1, G1, S, G2/M) were analyzed using flow cytometry after staining cells with propidium iodide (PI). […] Fixed cells were stained with antibodies to α-tubulin (green) and phospho-histone H3 (pH3, red), and DAPI was used for DNA (blue). Stained cells were observed by confocal fluorescence microscope. The represented image is a projection of 15~20 optical sections acquired at 0.5~1 µm intervals. […] Bar, 0.025 mm. Additional images are available in Supplementary Figure S1.
To determine whether the cell cycle arrest was due to an antimicrotubule effect, cells treated with compounds were analyzed by immunocytochemistry using antibodies to α-tubulin for microtubules and mitotic spindles, Ser10-phosphorylated histone H3 (pH3) for the condensed chromatins and 4′,6-diamidino-2-phenylindole (DAPI) for DNA. […] Thus, we concluded that these alkaloids are tubulin polymerization inhibitors.
Immunocytochemical analysis was performed as previously described. […] After treatment of cells with the agent for 24 h, cells were fixed with 4% paraformaldehyde in PBS and permeabilized with 0.5% Triton X-100 in PBS. Fixed cells were labeled with mouse monoclonal antibody to α-tubulin (B5-1-2, Sigma) and rabbit IgG to Ser10-phosphorylated histone H3 (p-H3) (#06570, EMD Millipore), followed by FITC-conjugated antibody to mouse IgG (Sigma) and Alexa Fluor 549-conjugated antibody to rabbit IgG (Life Technologies). Nuclei were labeled with DAPI (Sigma). Fluorescently-labeled cells were observed using a confocal microscope (Zeiss, LSM700) with ZEN (black edition) software (Zeiss). The 15~20 optical sections acquired at 0.5~1 µm intervals were stacked and reconstructed using ZEN (black edition) software. Experiments were repeated at least twice for each compound. Final images were prepared using Adobe Photoshop CS3.

[8] = tested on: KB-VIN cells; assay: Cell cycle analysis by flow cytometry (PI staining); type: cell-based, human; details: 24 h, 1 × IC50 or 3 × IC50
Procedure: KB-VIN cells were treated with compounds 3, 4, 6, 7, and 13 at their IC50 (1 × IC50) or three-fold IC50 (3 × IC50) concentration, and the cell cycle progression was analyzed by flow cytometer (Figure 2A).
as §5
KB-VIN cells were seeded in 12-well plates at a density of 1 × 10^5 per well and incubated overnight. […] The DNA contents of stained cells were analyzed by flow cytometer (LSRFortessa, BD Biosciences) controlled by FACSDiva software (BD Biosciences). Paclitaxel (PXL) was used at 3 or 6 µM. […] Experiments were repeated a minimum of two times.

[9] = Homo sapiens, A549, KB, KB-VIN, range stated for the group of compounds, read-out: IC50 values ranging over A549, KB and KB-VIN cells
[10] = MCF7, SRB assay, 72 h, positive controls, unit nM
[11] = SRB assay, positive controls, unit nM
[12] = MDA-MB-231, SRB assay, 72 h, positive controls, unit nM
[13] = A549, SRB assay, 72 h, positive controls, unit nM

| Compound | antiproliferative activity (in words) [4] | IC50 [5] [µM] | IC50 ([1]; MCF7, SRB assay, 72 h) [nM] | IC50 ([2]; SRB assay) [nM] | IC50 ([3]; MDA-MB-231, SRB assay, 72 h) [nM] | IC50 ([6]; A549, SRB assay, 72 h) [nM] | other results |
| --- | --- | --- | --- | --- | --- | --- | --- |
| CC[C@]12C=CCN3CC[C@]4(C(=C(C(=O)OC)C1)Nc1ccccc14)[C@@H]32 [Compound 1, tabersonine] | exhibited antiproliferative activity against all cell lines | 7.4 ± 0.3 |  |  |  |  | IC50 ([1]; MCF7, 72 h): 7200 ± 400 nM; IC50 [2]: 5500 nM; IC50 ([3]; MDA-MB-231, 72 h): 5900 nM; IC50 ([6]; A549, 72 h): 6900 ± 100 nM |
| CC[C@]12CCCN3CC[C@]4(C(=C(C(=O)OC)C1)Nc1ccccc14)[C@@H]32 [Compound 2, vincadifformine] | essentially inactive | > 40 | > 40000 | > 40000 | > 40000 | > 40000 |  |
| CC[C@]12C=C[C@@H](CC(C)=O)N3CC[C@]4(C(=C(C(=O)OC)C1)Nc1ccccc14)[C@@H]32 [Compound 3, 3α-acetonyl-tabersonine] | exhibited antiproliferative activity against all cell lines; also recorded: significant antiproliferative effects against all five tumor cell lines | 0.6 ± 0.1 | 2200 ± 200 | 600 | 900 | 600 | microtubule / mitotic spindle morphology [7]: dotted tubulin aggregations without spindles; effect on cell cycle progression [8]: accumulation of cells in the G2/M phase; also recorded: cell cycle arrest at G2/M; IC50 [4, 9]: 0.5 to 0.9 µM |
| CC[C@@]12CC(C(=O)OC)=C3Nc4ccccc4[C@@]34CCN(C[C@H]3O[C@H]31)[C@@H]24 [Compound 8, pachysiphine] | essentially inactive | > 40 | > 40000 | > 40000 | 34500 ± 200 | 27700 ± 100 |  |
| CC[C@@]12CC(C(=O)OC)=C3Nc4cc(OC)ccc4[C@@]34CCN(C[C@H]3O[C@H]31)[C@@H]24 [Compound 9, lochnerinine] | exhibited antiproliferative activity against all cell lines | 0.7 | 10200 ± 500 | 900 | 6000 ± 800 | 800 | fold rise in potency by a methoxy group at C-11 ([4]; 6 compared with 5, 9 compared with 8): ~ 60 fold; IC50 [4, 9]: 0.5 to 0.9 µM |
| COC(=O)C1=C2Nc3ccccc3C23CCN2CC=CC(C(C)O)(C1)C23 [Compound 10, 19-(R)-hydroxytabersonine] | essentially inactive | > 40 | > 40000 | > 40000 | > 40000 | > 40000 |  |
| COC(=O)C1=C2Nc3ccccc3C23CCN2CC=CC(C(C)OC(C)=O)(C1)C23 [Compound 11, 19-(R)-acetoxytabersonine] | essentially inactive | > 40 | > 40000 | 26500 ± 2500 | > 40000 | > 40000 | IC50 ([4]; five human tumor cell lines, read-out: IC50 range over the cell lines tested): > 26.5 µM |
| CC[C@]12C=CCN3CC[C@]4(C(=C(C(=O)OC)C1)Nc1cc(OC)ccc14)[C@@H]32 [Compound 12, 11-methoxytabersonine] | exhibited antiproliferative activity against all cell lines | 5.8 ± 0.1 |  | 5400 ± 400 | 6800 ± 1100 | 5200 ± 100 | IC50 ([1]; MCF7, 72 h): 8200 ± 900 nM |
| COC(=O)C1=C2Nc3cc(OC)ccc3C23CCN2CC=CC(C(C)OC(C)=O)(C1)C23 [Compound 14, 19-(R)-acetoxy-11-methoxytabersonine] | essentially inactive | > 40 | > 40000 | > 40000 | > 40000 | > 40000 |  |
| CC(=O)O[C@H]1C(=O)[C@@]2(C)[C@H]([C@H](OC(=O)c3ccccc3)[C@]3(O)C[C@H](OC(=O)[C@H](O)[C@@H](NC(=O)c4ccccc4)c4ccccc4)C(C)=C1C3(C)C)[C@]1(OC(C)=O)CO[C@@H]1C[C@@H]2O [PXL, paclitaxel, reference compound] |  | 2.36 ± 0.0595 |  |  |  |  | IC50 [1, 10]: 8.8 ± 1 nM; IC50 [2, 11]: 3.7 ± 1.1 nM; IC50 [3, 12]: 7 ± 0.9 nM; fold higher concentration required against KB-VIN cells [5]: 600 fold; IC50 [6, 13]: 4.5 ± 0.9 nM |
| CC[C@]1(O)C[C@H]2CN(CCc3c([nH]c4ccccc34)[C@@](C(=O)OC)(c3cc4c(cc3OC)N(C=O)[C@H]3[C@@](O)(C(=O)OC)[C@H](OC(C)=O)[C@]5(CC)C=CCN6CC[C@]43[C@@H]65)C2)C1 [VIN, vincristine, reference compound] |  | 2.48 ± 0.0282 |  |  |  |  | IC50 [1, 10]: 7.3 ± 0.2 nM; IC50 [2, 11]: 4.4 ± 0.1 nM; IC50 [3, 12]: 32 ± 0.5 nM; microtubule / mitotic spindle morphology [7]: with multipolar spindles; fold higher concentration required against KB-VIN cells [5]: 600 fold; IC50 [6, 13]: 22.9 ± 2.4 nM |
